The nature of the series: gradient 5% acetonitrile 3 min, to 50% in 2 min, to 85% in 15 min, held 3 min, 100 µL/min. To be noted: column: Zorbax Extend-C18 2.1 x 50 mm; eluents: water / acetonitrile, 0.1% formic acid. An outline of the steps: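 Pure standards were run in mixtures of ~100 molecules by HPLC coupled to a quadrupole time-of-flight mass spectrometer. The column was a Zorbax Extend-C18 (2.1 × 50 mm, 1.8 μm) at 100 μL/min, with water and acetonitrile each containing 0.1% formic acid, in positive and negative ionization mode. Dead and dwell volumes were 40 μL and 900 μL. Retention time was taken from computationally picked adduct peaks, each manually inspected, with data collected over 3 months.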
For the compound `CCNc1nc(C)cc(N2CCN(C(=O)Nc3cc(OC)cc(OC)c3)CC2)n1`, the RP-LC retention time came to 657 s.
To `CCSc1nc2ccc(NS(=O)(=O)c3cccc4nsnc34)cc2s1` belongs 977 s; to `O=C(NCc1cccnc1)C1CCN(Cc2cc3ccccc3n2Cc2cccc(F)c2)CC1`, 608 s.
To `CC1=C(c2cccc(Cl)c2)S(=O)(=O)N=C1N1CCC(NC(=O)C2CCCO2)CC1` (configuration not stated) belongs 771 s.
To `COc1cc(NC(=O)C(C)Oc2ccc(=O)n(-c3ccc(F)cc3)n2)cc(OC)c1` (configuration not stated) belongs 794 s; to `Cc1ccc(Cn2cccc(S(=O)(=O)N3CCCC3)c2=O)cc1`, 859 s.
Compound `O=C(NCCc1csc(-c2ccccc2)n1)[C@H]1CCCN1S(=O)(=O)c1cccc2nsnc12` registered an RP-LC retention time of 888 s.
To `CCc1ccc(N2CC(c3nc(-c4ccc(OC)c(OC)c4)no3)CC2=O)cc1` (configuration not stated) belongs 989 s; to `CC(C)(c1cc(Cl)c(O)c(CN2CCOCC2)c1)c1cc(Cl)c(O)c(CN2CCOCC2)c1`, 630 s; to `CC(=O)N1c2ccc(S(=O)(=O)N3CCC(C(=O)NC(C)c4ccccc4)CC3)cc2CC1C` (configuration not stated), 733 s.
The compound `CCn1cc(CC(=O)NCc2cc(F)cc(F)c2)c2cccnc21` showed an RP-LC retention time of 739 s.
To `Cc1nnc(NC(=O)CSc2nnc(CCc3nc4ccccc4[nH]3)o2)s1` belongs 542 s; to `Cc1ccc(Cn2c(N3CCCC(C(=O)NCc4ccc(C)o4)C3)nc3ccsc3c2=O)cc1` (configuration not stated), 952 s; to `CCn1c(=O)oc2cc(-c3noc(-c4cc(SC)ccc4Cl)n3)ccc21`, 1270 s.
To `CCn1cnc(S(=O)(=O)N2CCC(C(=O)N3CCN(c4ccccn4)CC3)CC2)c1` belongs 556 s; to `Cc1ccnc(NS(=O)(=O)c2ccc(NC(=O)c3ccc(-n4cccn4)nn3)cc2)n1`, 686 s.
To `COc1ccccc1/C=C/c1nc(C#N)c(NCCCN(C)C)o1` belongs 658 s; to `Cc1ccc(C)c(N2CCN(c3ccnc(SCC(=O)Nc4ccc(C(C)C)cc4)n3)CC2)c1`, 1060 s; to `Cc1noc(-c2ccc(OC3CN(S(=O)(=O)c4c(C)noc4C)C3)cc2)n1`, 943 s.
In turn, `CCS(=O)(=O)c1nc2ccc(NS(=O)(=O)c3ccc(OC)c(Cl)c3)cc2s1` returned an RP-LC retention time of 907 s.
In the case of `O=C(CN1CCN(Cc2ccc(F)cc2)C1=O)NCc1ccc(F)cc1F`, the RP-LC retention time worked out at 809 s.
To `CN(C)c1cc(-n2cnc(C(=O)Nc3ccc4c(c3)OCCO4)c2)ncn1` belongs 755 s; to `Cc1cc(C)n(CCC(=O)NC2CCN(c3ccc(=O)[nH]n3)C2)n1` (configuration not stated), 579 s; to `CC(C)(C)c1ccc(S(=O)(=O)N2CCC3(CC2)NCCN=C3NCc2ccccc2)cc1`, 854 s.
`CCOC(=O)c1c(C)oc2ncnc(NCCN(C)Cc3ccccc3)c12`: the RP-LC retention time came out at 688 s.
To `O=C1c2cccc3cccc(c23)C(=O)N1CC(=O)N1CCCc2ccccc21` belongs 593 s.
The compound `Cc1nnc(N2CCC(C(=O)NCC3CCCO3)CC2)c2nn(-c3ccccc3)c(C)c12` (configuration not stated) yielded an RP-LC retention time of 632 s.
Turning to `Cc1ncsc1C1N(C2CCN(C(=O)c3ccco3)CC2)C(=O)C12CCCC2` (configuration not stated), the RP-LC retention time was 666 s.
To `CCCc1nc(-c2ccccc2)oc1CC(=O)Nc1ccc(Cl)cc1C` belongs 1090 s; to `Cc1ccc(NS(=O)(=O)c2cc3n(c2)CCCN(C)C3=O)cc1C`, 720 s.
To `Cc1cc2nc(C)c(=O)n(CC(=O)NCCN(C)C)c2cc1C` belongs 583 s; to `O=C(c1cn(-c2cc(N3CCSCC3)ncn2)cn1)N1CCN(C2CCCCC2)CC1`, 635 s.
The compound `CCOc1ccc(CC(=O)NC2CCN(c3cc(-c4ccccc4)[nH]n3)C2)cc1OCC` (configuration not stated) showed an RP-LC retention time of 721 s.
To `O=C1NCCCn2cc(S(=O)(=O)N(Cc3ccccc3)c3ccccc3)cc21` belongs 808 s; to `O=C(Nc1ccccc1C(F)(F)F)c1cnc(-c2ccccc2)nc1-c1ccncc1`, 915 s; to `COc1ccc2c(c1)C1(CCN(S(=O)(=O)c3cccs3)C1)C(=O)N2` (configuration not stated), 790 s.
To `O=C(Cc1ccc(NC(=O)c2ncc(-c3ccccc3)o2)cc1)NCc1cccs1` belongs 866 s; to `O=C(c1ccccc1Br)N(Cc1cccc(Cl)c1)C1CCS(=O)(=O)C1` (configuration not stated), 846 s.
To `C[C@H]1CC[C@@H]2N(C1)C[C@H]1[C@@H]3C[C@H]4[C@@H](CC(=O)[C@H]5C[C@@H](O)CC[C@@]54C)[C@@H]3CC[C@H]1[C@]2(C)O` belongs 601 s; to `Cc1ccccc1-c1nnc(COc2ccc(NC(=O)c3cncc(Br)c3)cc2)o1`, 968 s.
In the case of `Cn1cccc1C(=O)N1CCC(c2noc(-c3ccncc3)n2)C1` (configuration not stated), the RP-LC retention time was determined as 720 s.
For the compound `CCCCc1cc(=O)oc2cc(C)cc(OC(C)C(=O)N3CCC4(O)CCCCC4C3)c12` (configuration not stated), the RP-LC retention time is 952 s.
`CCC1CCCCN1C(=O)c1cnc2nc(C)ccc2c1Nc1ccc(C)cc1` (configuration not stated) yielded an RP-LC retention time of 674 s.
To `COc1cc(-c2nc(-c3ccc4c(c3)nnn4C)no2)cc(OC)c1OC` belongs 937 s; to `CCC1CCCCN1CCCNC(=O)C1CCN(c2ccc(N3CCCCC3)nn2)CC1` (configuration not stated), 561 s; to `O=C(NC1CCCCCC1)c1csc(-c2ccc(N3CCCC3)nc2)n1`, 774 s.
`CC(C)n1cc(S(=O)(=O)NCc2ccccc2Cl)c2cccnc21` showed an RP-LC retention time of 914 s.
In turn, `CCn1cc(-c2nc(C(=O)NCc3ccc(F)cc3F)cs2)c2cccnc21` registered an RP-LC retention time of 992 s.
To `CCOc1nc2ccccc2nc1N1CCCC(C(=O)Nc2cccc3ccccc23)C1` (configuration not stated) belongs 1230 s.
For the compound `CCOC(=O)N1CCN(c2cc(C(=O)O)c3cc(NC(=O)c4ccc(OC)cc4)ccc3n2)CC1`, the RP-LC retention time was found to be 630 s.
To `Cc1ccc(-c2nc3ncc(C#N)c(N)n3n2)cc1` belongs 707 s; to `CCCNC(=O)C1CCN(c2ccc(SCC(=O)Nc3ccc(C(=O)OCC)cc3)nn2)CC1`, 677 s; to `Cc1ccc(NS(=O)(=O)c2ccc3c4c(cccc24)C(=O)N3)c(C)c1`, 751 s.
`NC1(Cc2ccc(Cl)cc2)CCN(c2ncnc3[nH]ccc23)CC1` registered an RP-LC retention time of 602 s.
With `Cc1ccc(C(=O)NC2CCN(c3ccccc3)C2=O)c(C)c1` (configuration not stated), the RP-LC retention time was 797 s.
`COC(=O)c1ccc(NC(=O)C(=O)NCC2CCN(Cc3cccs3)CC2)cc1` returned an RP-LC retention time of 567 s.
Compound `CC(C)(C)c1ccc(-c2noc(Cn3c(=O)n(-c4ccc(Cl)cc4)c(=O)c4sccc43)n2)cc1` returned an RP-LC retention time of 1280 s.
To `COCCn1cc(CCNC(=O)Nc2cccc(C)c2C)c2cccnc21` belongs 721 s.
Regarding `COc1ccc(C2CC(=O)c3c([nH]c(C(=O)OCC4CCCO4)c3C)C2)cc1OC` (configuration not stated), the RP-LC retention time worked out at 846 s.
On to `COc1cccc(-c2nc(-c3ccc(-n4ccnc4)nc3)no2)c1`, for which the RP-LC retention time came to 736 s.
To `Cc1ccc(N2CC(c3nc4ccccc4n3CC(=O)N(CC(C)C)CC(C)C)CC2=O)cc1` (configuration not stated) belongs 967 s; to `CN1c2cc(F)ccc2C(=O)NC12CCN(C(=O)c1ccc(Cl)cc1)CC2`, 785 s; to `O=C(NCc1ccc2c(c1)OCO2)C1CCCN(S(=O)(=O)c2c[nH]c(C(=O)N3CCCC3)c2)C1` (configuration not stated), 738 s.
To `CCNC(=O)NCCC1CCN(S(=O)(=O)c2ccc(C)cc2)CC1` belongs 748 s; to `O=C(NC1CCN(c2cc(-c3cccs3)[nH]n2)C1)c1ccc(Cl)cc1` (configuration not stated), 776 s.
For `CCc1ccc(OC(C)C(=O)N(Cc2ccc(C)o2)C2CCS(=O)(=O)C2)cc1` (configuration not stated), the RP-LC retention time is 984 s.
In turn, `CCCC(=O)N1CCc2c([nH]c3ccccc23)C1c1ccccc1` (configuration not stated) yielded an RP-LC retention time of 1080 s.
The compound `COc1ccc(Cl)cc1NC(=O)CN1CCN(c2ccccc2F)CC1` displayed an RP-LC retention time of 709 s.
To `CCc1noc(CN2N=C(C(=O)N3CCC(C)CC3)S(=O)(=O)c3ccccc32)n1` belongs 886 s; to `Cc1nc(-c2cn(C)c3ncccc23)sc1C(=O)NCc1ccccc1C(F)(F)F`, 998 s; to `Cc1ncsc1C1N(C2CCN(C(=O)Nc3ccccc3)CC2)C(=O)C12CCCC2` (configuration not stated), 749 s.
To `CCCn1c(-c2cccc(C(=O)NCc3cccc(C(F)(F)F)c3)c2)nc2cccnc21` belongs 936 s; to `CCOC(=O)C1CCCN(C(=O)C2CCN(S(=O)(=O)c3ccc4c(ccn4CC)c3)CC2)C1` (configuration not stated), 849 s.
`C=Cc1ccc(CN2CCCN(c3ncccc3-c3nc(CC)no3)CC2)cc1` gave an RP-LC retention time of 722 s.
For `Cc1cccc(OCc2nc(-c3ccc4ncn(C(C)C)c4c3)no2)c1`, the RP-LC retention time came to 839 s.
To `Cn1nc(N2CCC(NC(=O)CCn3cnnn3)CC2)ccc1=O` belongs 566 s.
For `O=C(NCc1ccc(-c2noc(/C=C/c3ccccc3)n2)s1)C1CC1`, the RP-LC retention time turned out to be 915 s.

Values taken from the METLIN SMRT retention time set (Domingo-Almenara et al. 2019).
